# Data taken from patent publication US20240368147A1, “CYCLIN K DEGRADER” (ADLAI NORTYE BIOPHARMA CO., LTD., priority 2021, published 2024).
# Legend:
# Cyclin K (CCNK) = target: T1, Cyclin K (CCNK) (Homo sapiens, UniProt O75909+Q9NYV4); assay: Western blot detection of Cyclin K (CCNK) degradation; assay type: cell-based; details: HEK293 cells, compared with the control; for degradation of Cyclin K (FIG. 2): 1 μM, 6 hours
# T1 construct: total cell protein was extracted with RIPA cell lysis buffer; host or cells: HEK293
# Experimental: Western Blot Detection of Cyclin K (CCNK) Degradation
# Harvest HEK1293 cells (ATCC, cat #CRL-1573) and adjust the cell density to 1×10^6 cells per ml. Pour 1 ml of cell suspension per well into a 6-well plate and culture overnight. Take the compound stock solution and dilute it to the appropriate concentration with DMSO. Add the diluted compound into the cell wells using culture medium at a ratio of 1:1000 to ensure that the DMSO concentration in each well is 0.1%. At the same time, negative control wells were set, that is, complete culture medium containing 0.1% DMSO. After the compounds were treated and fixed at the concentrations shown in the figure and for different times, total cell protein was extracted with RIPA cell lysis buffer (Beyotime, cat #P0013B) added with PMSF. After protein quantification using the BCA protein quantification kit (Thermo Fisher, cat #A53225), each sample was subjected to subsequent SDS-PAGE and western blot experiments at a loading volume of 40 μg. The specific conditions are: after running the gel at 120V constant pressure for 90 minutes, transfer the film at a constant current of 320 mA for 60 minutes. Carry out antibody incubation according to the recommended dilution ratio and incubation time of the antibody. The information of the antibodies used in the experiment is as follows: Anti-GAPDH antibody (abcam, cat #ab9485), Anti-Cyclin K antibody (abcam, cat #ab85854), Goat anti-Rabbit IgG (H+L) Cross-Adsorbed Secondary Antibody, HRP (invitrogen, cat #G-21234). ECL luminescence solution (Thermo Fisher, cat #32209) was used to develop color and luminescence. A gel imaging system was used to analyze the final results.
# According to the above detection method, some compounds of the present disclosure were evaluated.
# [1] = tested on: HGC27 (Human Gastric Cancer Cell); assay: HGC27 cell growth inhibition (CellTiter-Glo); assay type: cell-based; details: Homo sapiens, HGC-27, 24 h, HGC27 cells, 24 hours, CellTiter-Glo; read-out: HGC27 CTG IC50
# Experimental: Biological Activity Detection of HGC27 (Human Gastric Cancer Cell) Cell Growth Inhibition
# This detection method is used to evaluate the cellular level biological activity of the compounds of the present disclosure.
# Harvest HGC27 cells (purchased from Chinese Academy of Sciences), resuspend in complete culture medium and adjust the cell density to 0.2×10^6 cells per ml. Add 100 μL of cell suspension to each well into a 96-well plate and incubate overnight in a 37° C., 5% CO2 incubator. Prepare the compound to be tested and add it to the cell plate so that the maximum concentration of the compound is 10 μM. Set 8 concentration points according to 3-fold dilution. At the same time, set up a 100% inhibition control well, that is, a well with no cells added and only an equal volume of complete culture medium; and a 0% inhibition control well, that is, a cell well with 0.1% DMSO added. The above cell plate was cultured at 37° C. and 5% CO2 for 24 hours. Take out the cell culture plate, add 25 μl CellTiter-Glo® Luminescent Cell Viability reagent (promega cat #G7573) to each well, incubate in the dark for 10 minutes, transfer 100 μL to a white plate, and use Molecular Devices SpectraMax i3 to detect chemiluminescence. Data processing uses the following formula to calculate the inhibition rate: compound inhibition rate=(0% inhibition of control well signal−compound treatment well signal)/(0% inhibition of control well signal−100% inhibition of control well signal)*100%. The calculated data were fitted using graphpad prism software with four parameters and the corresponding IC50 was calculated.
# According to the above detection method, the biological activity of the compound of the present disclosure was evaluated at the cellular level. Wherein, CR8 is a literature compound, which was purchased from Shanghai Bide Pharmaceutical.
# T1 sequence (O75909 whole entry): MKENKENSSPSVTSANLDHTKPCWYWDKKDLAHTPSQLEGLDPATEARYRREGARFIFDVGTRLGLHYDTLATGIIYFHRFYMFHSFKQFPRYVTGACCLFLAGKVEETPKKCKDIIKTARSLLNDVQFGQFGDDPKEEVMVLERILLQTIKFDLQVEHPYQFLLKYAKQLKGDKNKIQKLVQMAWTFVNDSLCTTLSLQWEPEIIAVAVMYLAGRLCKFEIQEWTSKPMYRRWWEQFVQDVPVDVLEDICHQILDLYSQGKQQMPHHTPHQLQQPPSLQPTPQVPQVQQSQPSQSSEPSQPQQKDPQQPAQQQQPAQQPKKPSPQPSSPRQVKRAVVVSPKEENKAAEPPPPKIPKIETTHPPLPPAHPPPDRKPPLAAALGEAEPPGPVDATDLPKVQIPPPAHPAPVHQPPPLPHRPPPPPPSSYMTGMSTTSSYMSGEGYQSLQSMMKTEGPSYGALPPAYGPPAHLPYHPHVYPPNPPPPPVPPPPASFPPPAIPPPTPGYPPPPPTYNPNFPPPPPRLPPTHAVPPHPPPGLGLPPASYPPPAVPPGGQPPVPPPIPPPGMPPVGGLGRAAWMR
# T1 sequence (Q9NYV4 whole entry): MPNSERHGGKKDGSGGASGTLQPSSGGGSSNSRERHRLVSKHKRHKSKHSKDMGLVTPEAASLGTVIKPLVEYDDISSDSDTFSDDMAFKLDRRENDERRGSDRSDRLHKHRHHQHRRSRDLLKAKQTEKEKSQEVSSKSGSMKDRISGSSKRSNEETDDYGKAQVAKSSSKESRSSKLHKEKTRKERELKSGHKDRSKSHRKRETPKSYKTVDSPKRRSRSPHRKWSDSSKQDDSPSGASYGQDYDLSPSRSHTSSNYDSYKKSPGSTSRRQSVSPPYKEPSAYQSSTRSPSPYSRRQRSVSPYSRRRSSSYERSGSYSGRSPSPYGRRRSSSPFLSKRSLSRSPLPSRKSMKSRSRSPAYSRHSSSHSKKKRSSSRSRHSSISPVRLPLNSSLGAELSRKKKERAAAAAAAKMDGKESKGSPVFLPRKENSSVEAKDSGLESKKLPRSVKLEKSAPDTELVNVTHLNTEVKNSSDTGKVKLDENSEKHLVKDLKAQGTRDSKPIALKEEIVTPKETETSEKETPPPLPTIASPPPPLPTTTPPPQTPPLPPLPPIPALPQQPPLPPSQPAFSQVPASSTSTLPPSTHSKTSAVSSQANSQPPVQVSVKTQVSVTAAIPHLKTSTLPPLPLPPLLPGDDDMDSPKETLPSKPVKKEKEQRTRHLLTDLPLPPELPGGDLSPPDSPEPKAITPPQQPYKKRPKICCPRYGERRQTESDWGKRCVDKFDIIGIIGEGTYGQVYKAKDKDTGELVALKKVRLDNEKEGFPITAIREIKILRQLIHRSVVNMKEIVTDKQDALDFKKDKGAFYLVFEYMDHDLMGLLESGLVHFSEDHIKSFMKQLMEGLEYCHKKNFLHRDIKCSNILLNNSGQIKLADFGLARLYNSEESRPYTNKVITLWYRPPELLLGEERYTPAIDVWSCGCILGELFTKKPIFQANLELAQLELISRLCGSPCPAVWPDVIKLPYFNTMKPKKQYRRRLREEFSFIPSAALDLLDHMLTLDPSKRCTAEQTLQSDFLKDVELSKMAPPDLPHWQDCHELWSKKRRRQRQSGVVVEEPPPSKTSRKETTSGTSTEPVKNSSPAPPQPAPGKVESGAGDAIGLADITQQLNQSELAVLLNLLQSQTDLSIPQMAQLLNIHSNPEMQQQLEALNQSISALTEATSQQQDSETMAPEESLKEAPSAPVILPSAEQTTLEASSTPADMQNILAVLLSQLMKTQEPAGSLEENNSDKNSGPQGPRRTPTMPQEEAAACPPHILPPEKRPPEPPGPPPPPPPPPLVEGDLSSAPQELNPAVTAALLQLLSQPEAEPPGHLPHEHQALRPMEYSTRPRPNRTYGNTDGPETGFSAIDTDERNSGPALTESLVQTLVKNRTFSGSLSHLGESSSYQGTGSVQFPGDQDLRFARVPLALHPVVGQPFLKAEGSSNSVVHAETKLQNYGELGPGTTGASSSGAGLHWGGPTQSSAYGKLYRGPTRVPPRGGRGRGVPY
# T1 sequence (Q16531 whole entry partner): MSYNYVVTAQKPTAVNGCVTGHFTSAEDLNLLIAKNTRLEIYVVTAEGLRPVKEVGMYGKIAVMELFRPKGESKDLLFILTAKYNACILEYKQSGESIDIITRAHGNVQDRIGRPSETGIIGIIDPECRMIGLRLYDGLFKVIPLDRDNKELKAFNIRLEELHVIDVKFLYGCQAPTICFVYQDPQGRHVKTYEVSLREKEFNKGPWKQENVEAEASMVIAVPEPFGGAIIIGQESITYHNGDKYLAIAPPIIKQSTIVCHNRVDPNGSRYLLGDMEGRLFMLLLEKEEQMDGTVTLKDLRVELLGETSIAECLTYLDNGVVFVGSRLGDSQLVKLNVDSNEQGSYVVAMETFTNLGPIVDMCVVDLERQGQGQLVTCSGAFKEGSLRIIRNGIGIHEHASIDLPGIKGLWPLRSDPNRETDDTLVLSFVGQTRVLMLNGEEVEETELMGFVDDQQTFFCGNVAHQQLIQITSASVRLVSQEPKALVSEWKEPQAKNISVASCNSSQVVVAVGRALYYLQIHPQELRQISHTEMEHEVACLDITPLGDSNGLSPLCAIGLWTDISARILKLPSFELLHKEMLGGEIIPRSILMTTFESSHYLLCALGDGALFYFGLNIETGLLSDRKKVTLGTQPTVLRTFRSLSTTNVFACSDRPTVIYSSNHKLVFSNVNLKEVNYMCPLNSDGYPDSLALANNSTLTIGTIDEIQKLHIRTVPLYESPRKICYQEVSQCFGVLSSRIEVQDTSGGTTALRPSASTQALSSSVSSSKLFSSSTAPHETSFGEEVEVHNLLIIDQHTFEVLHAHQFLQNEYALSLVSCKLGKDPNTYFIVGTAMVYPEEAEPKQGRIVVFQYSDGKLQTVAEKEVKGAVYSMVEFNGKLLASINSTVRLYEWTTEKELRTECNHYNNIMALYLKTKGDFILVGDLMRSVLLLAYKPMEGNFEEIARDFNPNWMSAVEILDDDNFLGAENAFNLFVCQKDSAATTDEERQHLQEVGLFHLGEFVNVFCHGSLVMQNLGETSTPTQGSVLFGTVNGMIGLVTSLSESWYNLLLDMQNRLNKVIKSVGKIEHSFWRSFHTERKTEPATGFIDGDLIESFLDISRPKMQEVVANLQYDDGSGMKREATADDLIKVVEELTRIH
Compound,degradation of Cyclin K (FIG. 2) (Cyclin K (CCNK)),IC50 [1] [nM],"degradation of Cyclin K (FIG. 1) (Cyclin K (CCNK); 0.1, 0.3, 1 μM, 6 h, 14 h, 24 h)"
FC(F)(F)c1cnc(NCc2ccc(-c3cccnc3)cc2)nc1OC1COC1 [Compound 5],significantly induce the degradation of Cyclin K,–,–
FC(F)(F)c1cnc(NCc2ccc(-c3ccccn3)cn2)nc1OC1COC1 [Compound 4],significantly induce the degradation of Cyclin K,–,–
CS(=O)(=O)c1cncc(-c2nc(NCc3ccc(-c4ccccn4)cc3)ncc2C(F)(F)F)c1 [Compound 13],significantly induce the degradation of Cyclin K,307,–
OCc1cccc(-c2ccc(CNc3ncc(C(F)(F)F)c(OC4COC4)n3)cc2)n1 [Compound 18],significantly induce the degradation of Cyclin K,281,–
FC(F)(F)c1cnc(NCc2ccc(-c3ccccn3)cc2)nc1NC1COC1 [Compound 8],significantly induce the degradation of Cyclin K,–,–
Clc1cnc(NCc2ccc(-c3ccccn3)cc2)nc1OC1COC1 [Compound 3],significantly induce the degradation of Cyclin K,–,–
FC(F)(F)c1cnc(NCc2ccc(-c3ccccn3)cc2)nc1OC1COC1 [Compound 1],–,385,significantly induce the degradation of Cyclin K
